Experimental data: PubChem BioAssay AID1919010 (Molecular Pharmacology Branch, DTP, NCI, 2023)
pIC50: −log10 of the molar value.

Test system: Hs578T complex spheroid growth, percent test/control
Experiment: Anticancer human tumor Hs578T cell line growth inhibition [AhR];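 also: luminescent viability signal as a proxy for spheroid growth; spheroids exposed to agents for one week after three days of growth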
Conditions: for pIC50: curve of first compound; for viability, T/C: stronger effect = lower value
Outline: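 Complex tumor spheroids co-cultured with HUVEC and human MSC stroma; AhR antagonists tested in combination with standard-of-care and investigational agents. Top concentration at or near clinical Cmax (else 10 microM), half-log dilutions; growth expressed as percent test/control.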

[1] = second compound 0.1 µM, first compound 0.0316 µM
[2] = second compound 0.1 µM, first compound 0.1 µM
[3] = second compound 0.1 µM, first compound 0.316 µM
[4] = second compound 0.1 µM, first compound 1 µM
[5] = second compound 0.1 µM, first compound 3.16 µM
[6] = second compound 0.1 µM, first compound 10 µM
[7] = second compound 0.316 µM, first compound 0.0316 µM
[8] = second compound 0.316 µM, first compound 0.1 µM
[9] = second compound 0.316 µM, first compound 0.316 µM
[10] = second compound 0.316 µM, first compound 1 µM
[11] = second compound 0.316 µM, first compound 3.16 µM
[12] = second compound 0.316 µM, first compound 10 µM
[13] = second compound 1 µM, first compound 0.0316 µM
[14] = second compound 1 µM, first compound 0.1 µM
[15] = second compound 1 µM, first compound 0.316 µM
[16] = second compound 1 µM, first compound 1 µM
[17] = second compound 1 µM, first compound 3.16 µM
[18] = second compound 1 µM, first compound 10 µM
[19] = second compound 3.16 µM, first compound 0.0316 µM
[20] = second compound 3.16 µM, first compound 0.1 µM
[21] = second compound 3.16 µM, first compound 0.316 µM
[22] = second compound 3.16 µM, first compound 1 µM
[23] = second compound 3.16 µM, first compound 3.16 µM
[24] = second compound 3.16 µM, first compound 10 µM
[25] = second compound 10 µM, first compound 0.0316 µM
[26] = second compound 10 µM, first compound 0.1 µM
[27] = second compound 10 µM, first compound 0.316 µM
[28] = second compound 10 µM, first compound 1 µM
[29] = second compound 10 µM, first compound 3.16 µM
[30] = second compound 10 µM, first compound 10 µM

How did the pIC50 (second compound 0.1 µM) turn out when CC(C)CC(NC(=O)C(Cc1ccccc1)NC(=O)c1cnccn1)B(O)O (stereo not given) + CC(CO)NC(=O)c1cc(-c2ccc(Cl)cc2)nn(-c2cnn(C)c2)c1=O was run?
Its pIC50 is 8.33.

And the pIC50 (second compound 0.316 µM)?
The pIC50 was 8.35.

And the pIC50 (second compound 1 µM)?
Its pIC50 is 8.34.

What about the pIC50 (second compound 3.16 µM) of the same molecule?
Its pIC50 is 8.30.

What about the pIC50 (second compound 10 µM) of the same molecule?
Its pIC50 is 8.42.

What about the viability, T/C (second compound 0.1 µM, first compound 0.000949 µM) of the same molecule?
Its viability, T/C is 97.9%.

And the viability, T/C (second compound 0.1 µM, first compound 0.003 µM)?
Its viability, T/C is 75.7%.

What about the viability, T/C (second compound 0.1 µM, first compound 0.00949 µM) of the same molecule?
Its viability, T/C is 10.4%.

And the viability, T/C (second compound 0.1 µM, first compound 0.03 µM)?
The viability, T/C was 0.34%.

What about the viability, T/C (second compound 0.1 µM, first compound 0.0949 µM) of the same molecule?
Its viability, T/C is 0.56%.

What about the viability, T/C (second compound 0.1 µM, first compound 0.3 µM) of the same molecule?
The viability, T/C was 0.73%.

And the viability, T/C (second compound 0.316 µM, first compound 0.000949 µM)?
The viability, T/C was 109%.

And the viability, T/C (second compound 0.316 µM, first compound 0.003 µM)?
Its viability, T/C is 72.6%.

What about the viability, T/C (second compound 0.316 µM, first compound 0.00949 µM) of the same molecule?
The viability, T/C was 6.27%.

And the viability, T/C (second compound 0.316 µM, first compound 0.03 µM)?
The viability, T/C was 0.48%.

And the viability, T/C (second compound 0.316 µM, first compound 0.0949 µM)?
Its viability, T/C is 0.41%.

What about the viability, T/C (second compound 0.316 µM, first compound 0.3 µM) of the same molecule?
The viability, T/C was 0.41%.

What about the viability, T/C (second compound 1 µM, first compound 0.000949 µM) of the same molecule?
The viability, T/C was 102%.

What about the viability, T/C (second compound 1 µM, first compound 0.003 µM) of the same molecule?
Its viability, T/C is 72%.

And the viability, T/C (second compound 1 µM, first compound 0.00949 µM)?
Its viability, T/C is 13.1%.

What about the viability, T/C (second compound 1 µM, first compound 0.03 µM) of the same molecule?
The viability, T/C was 0.32%.

What about the viability, T/C (second compound 1 µM, first compound 0.0949 µM) of the same molecule?
The viability, T/C was 0.27%.

And the viability, T/C (second compound 1 µM, first compound 0.3 µM)?
The viability, T/C was 0.39%.

What about the viability, T/C (second compound 3.16 µM, first compound 0.000949 µM) of the same molecule?
The viability, T/C was 102%.

And the viability, T/C (second compound 3.16 µM, first compound 0.003 µM)?
Its viability, T/C is 80.1%.

What about the viability, T/C (second compound 3.16 µM, first compound 0.00949 µM) of the same molecule?
Its viability, T/C is 13.2%.

What about the viability, T/C (second compound 3.16 µM, first compound 0.03 µM) of the same molecule?
Its viability, T/C is 0.29%.

And the viability, T/C (second compound 3.16 µM, first compound 0.0949 µM)?
Its viability, T/C is 0.26%.

What about the viability, T/C (second compound 3.16 µM, first compound 0.3 µM) of the same molecule?
Its viability, T/C is 0.35%.

And the viability, T/C (second compound 10 µM, first compound 0.000949 µM)?
Its viability, T/C is 85.6%.

What about the viability, T/C (second compound 10 µM, first compound 0.003 µM) of the same molecule?
The viability, T/C was 59.8%.

What about the viability, T/C (second compound 10 µM, first compound 0.00949 µM) of the same molecule?
Its viability, T/C is 11.6%.

What about the viability, T/C (second compound 10 µM, first compound 0.03 µM) of the same molecule?
The viability, T/C was 0.72%.

What about the viability, T/C (second compound 10 µM, first compound 0.0949 µM) of the same molecule?
Its viability, T/C is 0.38%.

And the viability, T/C (second compound 10 µM, first compound 0.3 µM)?
Its viability, T/C is 0.53%.

COc1cc(Nc2ncc3c(n2)-c2ccc(Cl)cc2C(c2c(F)cccc2OC)=NC3)ccc1C(=O)O + CC(CO)NC(=O)c1cc(-c2ccc(Cl)cc2)nn(-c2cnn(C)c2)c1=O was tested. Which pIC50 (second compound 0.1 µM) did it give?
Its pIC50 is under 5.00.

And the pIC50 (second compound 0.316 µM)?
Its pIC50 is under 5.00.

What about the pIC50 (second compound 1 µM) of the same molecule?
Its pIC50 is under 5.00.

What about the pIC50 (second compound 3.16 µM) of the same molecule?
The pIC50 was under 5.00.

What about the pIC50 (second compound 10 µM) of the same molecule?
The pIC50 was under 5.00.

And the viability, T/C [1]?
The viability, T/C was 99.8%.

And the viability, T/C [2]?
Its viability, T/C is 92.3%.

What about the viability, T/C [3] of the same molecule?
The viability, T/C was 104%.

What about the viability, T/C [4] of the same molecule?
Its viability, T/C is 99.1%.

What about the viability, T/C [5] of the same molecule?
The viability, T/C was 93.3%.

What about the viability, T/C [6] of the same molecule?
Its viability, T/C is 59.6%.

What about the viability, T/C [7] of the same molecule?
Its viability, T/C is 94.6%.

What about the viability, T/C [8] of the same molecule?
The viability, T/C was 96%.

And the viability, T/C [9]?
Its viability, T/C is 100%.

And the viability, T/C [10]?
The viability, T/C was 93.4%.

What about the viability, T/C [11] of the same molecule?
Its viability, T/C is 84.4%.

What about the viability, T/C [12] of the same molecule?
The viability, T/C was 51.8%.

What about the viability, T/C [13] of the same molecule?
Its viability, T/C is 102%.

What about the viability, T/C [14] of the same molecule?
The viability, T/C was 102%.

What about the viability, T/C [15] of the same molecule?
The viability, T/C was 114%.

And the viability, T/C [16]?
The viability, T/C was 99%.

What about the viability, T/C [17] of the same molecule?
Its viability, T/C is 85.3%.

And the viability, T/C [18]?
Its viability, T/C is 68.6%.

And the viability, T/C [19]?
The viability, T/C was 95.5%.

What about the viability, T/C [20] of the same molecule?
The viability, T/C was 91.6%.

What about the viability, T/C [21] of the same molecule?
The viability, T/C was 101%.

And the viability, T/C [22]?
Its viability, T/C is 102%.

What about the viability, T/C [23] of the same molecule?
Its viability, T/C is 84.7%.

What about the viability, T/C [24] of the same molecule?
The viability, T/C was 67.3%.

What about the viability, T/C [25] of the same molecule?
Its viability, T/C is 84.9%.

What about the viability, T/C [26] of the same molecule?
Its viability, T/C is 84%.

What about the viability, T/C [27] of the same molecule?
Its viability, T/C is 93.6%.

What about the viability, T/C [28] of the same molecule?
Its viability, T/C is 97.8%.

What about the viability, T/C [29] of the same molecule?
Its viability, T/C is 83.5%.

What about the viability, T/C [30] of the same molecule?
The viability, T/C was 72.3%.

Which results are given for NS(=O)(=O)OCC1CC(n2ccc3c(NC4CCc5ccccc54)ncnc32)CC1O (stereo not given) + CC(CO)NC(=O)c1cc(-c2ccc(Cl)cc2)nn(-c2cnn(C)c2)c1=O?
pIC50 (second compound 0.1 µM): 6.04; pIC50 (second compound 0.316 µM): 6.00; pIC50 (second compound 1 µM): 5.91; pIC50 (second compound 3.16 µM): 5.70; pIC50 (second compound 10 µM): 5.63; viability, T/C [1]: 104%; viability, T/C [2]: 95.3%; viability, T/C [3]: 69.9%; viability, T/C [4]: 47.6%; viability, T/C [5]: 41.4%; viability, T/C [6]: 33%; viability, T/C [7]: 114%; viability, T/C [8]: 81%; viability, T/C [9]: 75%; viability, T/C [10]: 50%; viability, T/C [11]: 30.1%; viability, T/C [12]: 29.4%; viability, T/C [13]: 109%; viability, T/C [14]: 90.6%; viability, T/C [15]: 77.9%; viability, T/C [16]: 52.7%; viability, T/C [17]: 34.7%; viability, T/C [18]: 27.8%; viability, T/C [19]: 119%; viability, T/C [20]: 91.3%; viability, T/C [21]: 90.2%; viability, T/C [22]: 55.9%; viability, T/C [23]: 41.6%; viability, T/C [24]: 34.8%; viability, T/C [25]: 95.1%; viability, T/C [26]: 96.6%; viability, T/C [27]: 88.9%; viability, T/C [28]: 65.2%; viability, T/C [29]: 44.1%; viability, T/C [30]: 40.8%

Which results are given for O=C(C=Cc1cccc(S(=O)(=O)Nc2ccccc2)c1)NO + CC(CO)NC(=O)c1cc(-c2ccc(Cl)cc2)nn(-c2cnn(C)c2)c1=O?
pIC50 (second compound 0.1 µM): 5.59; pIC50 (second compound 0.316 µM): 5.60; pIC50 (second compound 1 µM): 5.56; pIC50 (second compound 3.16 µM): 5.62; pIC50 (second compound 10 µM): 5.64; viability, T/C [1]: 112%; viability, T/C [2]: 113%; viability, T/C [3]: 102%; viability, T/C [4]: 82.6%; viability, T/C [5]: 43.2%; viability, T/C [6]: 2.61%; viability, T/C [7]: 115%; viability, T/C [8]: 116%; viability, T/C [9]: 103%; viability, T/C [10]: 82.5%; viability, T/C [11]: 41.8%; viability, T/C [12]: 2%; viability, T/C [13]: 109%; viability, T/C [14]: 117%; viability, T/C [15]: 106%; viability, T/C [16]: 89.8%; viability, T/C [17]: 45.1%; viability, T/C [18]: 2.32%; viability, T/C [19]: 106%; viability, T/C [20]: 113%; viability, T/C [21]: 107%; viability, T/C [22]: 80.8%; viability, T/C [23]: 41.1%; viability, T/C [24]: 2.02%; viability, T/C [25]: 93.5%; viability, T/C [26]: 94.8%; viability, T/C [27]: 93.6%; viability, T/C [28]: 70.5%; viability, T/C [29]: 42.1%; viability, T/C [30]: 1.62%
